According to a melting point compilation (Tetko et al.):

| SMILES | melting point [°C] |
| --- | --- |
| O=C1COc2cc(Br)c(S(=O)(=O)Cl)cc2N1 | 211 to 213 |
| CC(c1ccc(Cl)cc1Cl)S(N)(=O)=O (configuration not stated) | 123 to 125 |
| NC(CN1CCc2ccccc21)=NO | 93 to 95 |
| O=C(O)c1csc(-c2nnc[nH]2)n1 | 299 to 301 |
| Nc1cc(-c2c(F)cc(F)cc2F)no1 | 131 to 133 |
| CCOC(=O)c1c(N)sc2ccccc12 | 105 to 107 |
| O=C(O)c1ccc(S(=O)(=O)CC(F)F)cc1 | 212 to 214 |
| CC(C)(C)c1ccc(CC(C#N)C(N)=O)cc1 (configuration not stated) | 143 to 145 |
| O=C(O)CCOc1ccc(Br)cc1F | 91 to 93 |
| Nc1nnc(-c2ccccn2)[nH]1 | 199 to 201 |
| Cc1ccc(C(=O)NN)o1 | 59 to 61 |
| Cc1cc(C(=O)O)c2cnn(C)c2n1 | 284 to 286 |
| CSc1nc2cnccc2o1 | 85 to 87 |
| Cn1c(SCC(=O)O)nnc1-c1cccs1 | 205 to 207 |
| CNS(=O)(=O)c1ccc(C(=O)O)o1 | 164 to 166 |
| O=Cc1c[nH]nc1-c1cccc(Cl)c1 | 139 to 141 |
| Cc1nnc2ccc(Br)cn12 | 149 to 151 |
| Nc1cc(Cl)ncn1 | 196 to 198 |
| Nc1cc2c(c(C(=O)O)c1)OCCO2 | 213 to 215 |
| CS(=O)(=O)N1CCCC(C(=O)O)C1 (configuration not stated) | 107 to 109 |
| O=C(O)c1ccc(-c2noc(=O)[nH]2)cc1 | 354 to 356 |
| CC(C(=O)O)c1ccc(Br)cc1 (configuration not stated) | 54 to 56 |
| Nc1nc(Sc2ccccc2)ns1 | 154 to 156 |
| CCn1c(C)nnc1S | 129 to 131 |

| SMILES | melting point [°C] |
| --- | --- |
| N#CC1(NC(=O)c2ccccc2)CCC1 | 126 to 128 |
| Cc1cc(=O)[nH]n1C | 169 to 171 |
| CC12CSCC(=O)N1C(C(=O)O)CS2 (configuration not stated) | 202 to 204 |
| O=S(=O)(Cl)c1ccc2c(c1)CCC2 | 33 to 42 |
| CC1CC(C)CN(c2ccc(C(=O)O)cc2[N+](=O)[O-])C1 (configuration not stated) | 167 to 169 |
| O=S(=O)(Cl)c1c[nH]c2nccc(Br)c12 | 177 to 179 |
| CC(CC(=O)O)c1cccc(C(F)(F)F)c1 (configuration not stated) | 83 to 85 |
| Cc1cc(N(C)C)ccc1C#N | 59 to 61 |
| O=C(O)c1cccc(S(=O)(=O)Nc2ccc(OCc3ccccc3)cc2)c1 | 81 to 83 |
| O=C(O)/C=C/c1nccs1 | 182 to 184 |
| Cc1ccc(C(=O)CC#N)cc1F | 82 to 84 |
| CN1N=C(C(=O)O)CCC1=O | 156 to 158 |
| CC(=CC(=O)O)c1ccccc1 | 93 to 95 |
| O=C(O)CC1OCCc2ccccc21 (configuration not stated) | 74 to 76 |
| O=C1CCC(=O)N(c2ccc(C(=O)O)cc2)N1 | 248 to 250 |
| COCc1ccsc1C(=O)O | 119 to 121 |
| CS(=O)(=O)c1cccnc1 | 54 to 56 |
| NS(=O)(=O)c1ccc(Cl)c(NC(=O)CCl)c1 | 172 to 174 |
| O=C(O)Cc1csc(NC(=O)c2ccccc2I)n1 | 167 to 169 |
| O=C1CCCN1c1cccc(Br)c1 | 69 to 71 |
| Nc1nc(Cl)c(C=O)c(N2CCCC2)n1 | 176 to 178 |
| O=C(O)c1cc2c([nH]c1=O)CCCCC2 | 247 to 249 |
| O=C(O)C(Sc1ccc(F)c(Cl)c1)c1ccccc1 (configuration not stated) | 74 to 76 |
| O=C(O)Cc1cccc(OCc2ccccn2)c1 | 123 to 125 |

| SMILES | melting point [°C] |
| --- | --- |
| Nc1cccnc1-n1cncn1 | 110 to 112 |
| CCC(C)NC(=O)C1CC(C)Nc2ccccc21 (configuration not stated) | 121 to 123 |
| Cc1nnc(S)n1C1CCCC(C)C1 (configuration not stated) | 129 to 131 |
| CS(=O)(=O)Cc1ccc(S(=O)(=O)Cl)cc1 | 127 to 129 |
| Sc1nnc(N2CCOCC2)s1 | 179 to 181 |
| Cc1ccc2c(Cl)c(C(=O)O)sc2c1 | 271 to 273 |
| O=C(O)c1cc(Cl)ccc1I | 162 to 164 |
| Cc1cccc(-n2nc(-c3ccco3)cc2N)c1 | 82 to 84 |
| CCOC(=O)C1CCCNC1=O (configuration not stated) | 80 to 82 |
| CC(C)(C)c1cc(N)n(C(C)(C)C)n1 | 69 to 71 |
| Cc1ccc2[nH]c(C(=O)O)cc2c1C | 243 to 245 |
| Nc1cc(-c2ccc(OC(F)F)cc2)no1 | 88 to 90 |
| Cc1cccc(/C=C/c2cc(C(=O)O)c3cc(Br)ccc3n2)c1 | 286 to 288 |
| Cc1noc(C)c1COc1ccc(C(=O)O)cc1 | 224 to 226 |
| Fc1cccc2ncnc(Cl)c12 | 139 to 141 |
| O=C(O)C1(O)CCC1 | 39 to 41 |
| Cc1c(C(=O)O)cnc2ccccc12 | 254 to 256 |
| O=C(O)C1CCN(CC(F)(F)F)CC1 | 62 to 64 |
| N#Cc1ccc(-n2cnc3ccccc32)cc1 | 135 to 137 |
| O=[N+]([O-])c1cnc(Cl)c(Cl)c1 | 52 to 54 |
| Cc1ccc(S(=O)(=O)OC2C=CS(=O)(=O)C2)cc1 (configuration not stated) | 136 to 138 |
| Nc1ccc(-c2nc3cc(Br)ccc3[nH]2)cc1 | 219 to 221 |
| Ic1cnc2ccccc2c1 | 57 to 59 |
| CNC(=O)c1cc(Oc2ccccc2N)ccn1 | 115 to 117 |
